{"source": "paper PMC3615092", "about": "“Identification, Design and Bio-Evaluation of Novel Hsp90 Inhibitors by Ligand-Based Virtual Screening” (PLoS ONE, 2013)", "key": {"Hsp70": {"biological_target": "T1, Hsp70 (Homo sapiens, UniProt P0DMV8)", "T1 construct": "purchased Enzo Life science ALX-201-214-C025", "T1 sequence (P0DMV8 whole entry)": "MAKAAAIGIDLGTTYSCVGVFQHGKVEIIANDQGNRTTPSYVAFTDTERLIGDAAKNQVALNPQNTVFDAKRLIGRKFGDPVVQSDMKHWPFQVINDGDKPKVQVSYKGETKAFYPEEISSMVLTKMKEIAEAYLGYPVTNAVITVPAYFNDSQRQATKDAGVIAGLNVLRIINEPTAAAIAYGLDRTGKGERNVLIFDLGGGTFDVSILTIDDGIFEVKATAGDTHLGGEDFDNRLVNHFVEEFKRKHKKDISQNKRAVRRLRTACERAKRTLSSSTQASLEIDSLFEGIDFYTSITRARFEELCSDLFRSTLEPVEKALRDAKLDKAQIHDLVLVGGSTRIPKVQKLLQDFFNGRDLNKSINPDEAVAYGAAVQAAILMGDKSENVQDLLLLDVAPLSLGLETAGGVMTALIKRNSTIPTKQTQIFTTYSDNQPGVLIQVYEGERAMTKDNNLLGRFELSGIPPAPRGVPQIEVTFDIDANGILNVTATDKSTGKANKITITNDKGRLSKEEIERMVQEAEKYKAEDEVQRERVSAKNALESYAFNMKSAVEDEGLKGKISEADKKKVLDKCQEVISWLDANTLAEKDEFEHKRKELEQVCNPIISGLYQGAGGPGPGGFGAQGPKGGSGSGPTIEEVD", "experiment": "Hsp70 ATPase activity assay (ADP Hunter Plus)", "assay_type": "biochemical", "from_the_text": "The following materials were used for the biological evaluation: The PET-28a HSP90 expression vector was constructed. The Ni^2+-nitrilo-triacetic acid (NTA) agarose was purchased from General Electric (USA). […] Isopropyl-1-thio-d-galactopyranoside (IPTG) was purchased from Sigma (St. Lousi. MO). Antibodies of β-Actin, Hsp70, Hsp90, c-Raf, Akt, Src, Phospho-Src, ERK and Her-2 were purchased from Cell Signaling Technology (Danvers, MA). Anti-p-Akt(S473) was purchased from Signalway Antibody (Baltimore, MD). HIF-1α antibody was purchased from R&D systems. The stock solution of Hsp90 was prepared in a 20 mM Tris-Cl buffer with a pH 7.4, and concentration was fixed at 5.0 μM. […] The screened out compounds were purchased from SPECS and dissolved in DMSO (Sigma, St. Louis, MO) to make a final concentration of 10^−2 mol/L and were stored at −20°C. […] The water used in the experiments was thrice-distilled and all other materials were of analytical reagent grade.\nHsp70 ATPase activity was measured using Discover RX ADP Hunter^TM Plus Assay kit assay as descripted in the manufacturer's instructions. Breifly, Hsp70 (3 μM) was incubated with 1 mM ATP in 100 mM Tris pH 7.4 at 37°C for 3 h in the presence or absence of various concentrations of test compounds. ADP generation was measured using Varioskan multimode microplate spectrophotometer (540 nm excitation and 620 nm emission). Fluorescence intensity values measured for Hsp70 without any testing compound was assumed as 100% of enzyme activity. The background reaction rate was measured in a reaction lacking enzyme or substrate and subtracted from the experimental rates."}, "A549": {"system": "A549", "experiment": "Anti-proliferation MTT assay", "assay_type": "cell-based", "conditions": "Homo sapiens, A549, 48 h", "method": "(§1) Cell viabilities were measured by a colorimetric assay using 3-(4, 5-dimethylthiaz-ol-2-yl)-2,5-diphenyltetrazoliumbromide (MTT, Sigma, Ltd.) as described previously. Experiments were carried out in triplicate in a parallel manner for each concentration of target compounds and the results were presented as mean ± SE. Control cells were given only culture media. After incubation for 48 h, absorbance (A) was measured at 570 nm. Survival ratio (%) was calculated using the following equation: survival ratio (%) = (Atreatment/Acontrol) × 100%."}, "HCT116": {"system": "HCT116", "experiment": "Anti-proliferation MTT assay", "assay_type": "cell-based", "conditions": "Homo sapiens, HCT-116, 48 h", "method": "as §1"}, "HepG2": {"system": "HepG2", "experiment": "Anti-proliferation MTT assay", "assay_type": "cell-based", "conditions": "Homo sapiens, HepG2, 48 h", "method": "as §1"}, "MCF-7": {"system": "MCF-7", "experiment": "Anti-proliferation MTT assay", "assay_type": "cell-based", "conditions": "Homo sapiens, MCF7, 48 h", "method": "as §1"}, "MDA-MB-231": {"system": "MDA-MB-231", "experiment": "Anti-proliferation MTT assay", "assay_type": "cell-based", "conditions": "Homo sapiens, MDA-MB-231, 48 h", "method": "as §1"}, "SK-BR-3": {"system": "SK-BR-3", "experiment": "Anti-proliferation MTT assay", "assay_type": "cell-based", "conditions": "Homo sapiens, SK-BR-3, 48 h", "method": "as §1"}}}
{"smiles": "COc1ccccc1N1CCN(CC(O)COCCOc2ccc(Br)cc2)CC1", "note": "(centres unmarked) [Compound S13]", "values": [{"measurement": "IC50", "setting": "Hsp70; ADP Hunter Plus assay", "result": "43.8 ± 4.38", "unit": "µM"}, {"measurement": "selectivity HSP90 over HSP70", "setting": "Hsp70; ratio of IC50 HSP70 / HSP90, ADP fluorescence assay", "result": "over 15 times"}, {"measurement": "IC50", "setting": "A549", "result": 0.83, "unit": "µM"}, {"measurement": "IC50", "setting": "HCT116", "result": 3.63, "unit": "µM"}, {"measurement": "IC50", "setting": "HepG2", "result": 96.6, "unit": "µM"}, {"measurement": "IC50", "setting": "MCF-7", "result": 2.01, "unit": "µM"}, {"measurement": "IC50", "setting": "MDA-MB-231", "result": 14.6, "unit": "µM"}, {"measurement": "IC50", "setting": "SK-BR-3", "result": 3.32, "unit": "µM"}]}
